Experiments:
[1] = log P; assay type: physicochemical
[2] = test system: mice with cerulein-induced chronic pancreatitis; test: Cerulein model of chronic pancreatitis (CP); assay type: in vivo, mouse; conditions: 100 mg/Kg daily on the last 4 weeks
Procedure: Using the cerulein model, acute edematous pancreatitis was induced in two test groups of mice by eight hourly intraperitoneal injections of 50 μg/Kg cerulein, with control group mice receiving injections of physiological saline. Compound 2, at 100 mg/Kg, was administered to one of the cerulein groups by gavage 30 minutes after the first and fourth cerulein injections. Mice were sacrificed one hour after the last injection and tissues were collected for histological analysis. […] Recurrent acute pancreatitis (RAP) and chronic pancreatitis (CP) were induced by repetitive cerulein injections every third day over a span of 14 days (RAP) or 6 weeks (CP). Compound 2 was administered daily at 50 mg/Kg on the last 10 consecutive days for RAP and at 100 mg/Kg on the last 4 weeks for CP, with vehicle controls. Mice were sacrificed 1 day after the last cerulein injection and tissues were collected for histological analysis. In the CP model, the cerulein injections induced extensive acinar cell damage.

[3] = Intestinal stability, human intestinal S9; assay type: in vitro ADME
Procedure: The stability of compounds 1 and 2, and the control compound 7-hydroxycoumarin, were measured using human, rat, and mouse intestinal S9 fractions (Xenotech). Test compound working solutions were prepared by diluting 5 μL of 10 mM stock solutions in DMSO with 495 μL AN. S9 solutions were prepared by diluting the obtained S9 solutions to 1.0 mg/mL in 100 mM potassium phosphate buffer at pH 7.4 containing 10 mM D-saccharic acid-1,4-lactone. An Apricot automation workstation was used to add 100 μL/well of S9 solution to all reaction plates (Blank, T0, T5, T15, T30, T45, T60 and NCF60); 2 μL/well of compound working solutions were added to all 96-well reaction plates except the blank (T0, T5, T15, T30, T45, T60, and NCF60); 600 μL/well of stop solution (4° C. ACN containing 200 ng/mL tolbutamide and 200 ng/mL labetalol as internal standards) was added to the T0 reaction plate; all plates were pre-incubated at 37° C. for 10 minutes; a cofactor regenerating system (98 μL/well) was added, excluding the NCF60 plate which instead received 98 μL/well of 100 mM potassium phosphate buffer. All plates were then incubated at 37° C. To terminate reactions, 600 μL/well of stop solution was applied at specific end time points. After sealing and a 10-minute shaking, plates were centrifuged at 4000 rpm and 4° C. for 20 minutes. Concurrently, 300 μL/well of HPLC grade water was loaded onto eight new 96-well bioanalysis plates. Post-centrifugation, 100 μL supernatant from each reaction plate was transferred to its corresponding bioanalysis plate, shaken for 10 minutes, and then subjected to LC-MS/MS analysis (Shimadzu LC-40D LC system coupled to a Sciex Qtrap 6500 Plus mass spectrometer, using both positive and negative ion modes).

[4] = test system: patients with moderate to severe rheumatoid arthritis; test: Randomized, double-blind, placebo-controlled study in rheumatoid arthritis; assay type: in vivo, human; conditions: oral 500 mg capsule once daily for 24 weeks; expected
Procedure: Approximately 120 patients, ages 30-65, diagnosed with rheumatoid arthritis according to the 2010 ACR/EULAR classification criteria, are enrolled in a randomized, double-blind, placebo-controlled study to evaluate the efficacy of compound 2 in patients with moderate to severe rheumatoid arthritis. Participants are randomized to receive either oral compound 2 (500 mg capsule) or placebo once daily for a period of 24 weeks. The primary efficacy endpoint is the improvement in the Disease Activity Score-28 (DAS28) with C-reactive protein (CRP) at week 24. A clinically meaningful reduction in DAS28 score is defined as a reduction of ≥1.2 points from baseline. Secondary endpoints include: Improvement in physical function as measured by the Health Assessment Questionnaire Disability Index (HAQ-DI), reduction in morning stiffness and joint pain, and changes in levels of inflammatory cytokines such as TNF-α, IL-6, and IL-1β. […] Additionally, compound 2 is expected to reduce serum levels of pro-inflammatory cytokines and markers of joint damage such as matrix metalloproteinases (MMPs), thus providing evidence of its disease-modifying effects.

[5] = test system: LMNA^H222P/H222P mouse; test: Dilated cardiomyopathy model, echocardiography; assay type: in vivo; conditions: continuous 4 weeks by osmotic pumps
Procedure: The LMNA^H222P/H222P mouse is a well-established model for studying dilated cardiomyopathy and heart failure, with cardiac dysfunction typically beginning to manifest at around 16 weeks of age. In this study, 16-week-old LMNA^H222P/H222P mice underwent baseline echocardiography prior to treatment. Compound 2 was then administered continuously for 4 weeks using osmotic pumps, with DMSO as the vehicle control. At the end of the treatment period, echocardiography was performed again to assess the impact of compound 2 on cardiac function compared to the control group. […] In a FLNC knockout model using the Myh6-Cre:FLNC^wt/F mouse, 16-week-old mice underwent baseline echocardiography, were treated with compound 2 at 50 mg/Kg/day or vehicle by gavage for 6 weeks, and underwent echocardiography to assess the change in cardiac function. […] The genistein phosphate derivatives of this invention are therefore expected to be useful for the treatment of subjects with dilated cardiomyopathy.

[6] = increases seen in control group

O=c1c(-c2ccc(O)cc2)coc2cc(OCOP(=O)(O)O)cc(O)c12 [Compound 2, ((5-Hydroxy-3-(4-hydroxyphenyl)-4-oxo-4H-chromen-7-yl)oxy)methyl dihydrogen phosphate]
logP [1]: 1.59
overall outcome over untreated mice (histology) [2]: marked improvement
acinar cell death ([2]; vs untreated group): significant reduction
acinar cell density ([2]; vs untreated group): increase
normalized control factor remaining [3]: 56.6%
half-life at 1 µM ([3]; intestinal S9 fraction, pH 7.4): 26.8 min
microsomal CLint at 1 µM ([3]; intestinal S9 fraction, pH 7.4, read-out: intrinsic clearance rate): 51.7 µL/min/mg
serum levels of pro-inflammatory cytokines [4]: reduce
ejection fraction ([5]; vs DMSO control group): reduced the decrease
fractional shortening ([5]; vs DMSO control group): reduced the decrease
left ventricular diameter [5, 6]: reduced
left ventricular volume [5, 6]: reduced

From patent US20250170154A1 (GreenStone Biosciences, Inc., priority 2023, published 2025)
